Here are results for 10 molecules from US6696454B2, “Inhibitors of spermidine synthase for the treatment of osteoarthritis and cartilage rehabilitation” (Quark Biotech, Inc., priority 2000, dated 2004).

Data set [1] deals with spermidine synthase. The following applies: cited from earlier work.
In a further data set the test system is cell proliferation. The following applies: cell culture; cited from earlier work.
Data set [2] concerns the target T1, spermidine synthase (Homo sapiens, UniProt P19623).
T1 construct: host or cells: a variety of mammalian cells (endogenous enzyme)
T1 sequence (P19623 1-302): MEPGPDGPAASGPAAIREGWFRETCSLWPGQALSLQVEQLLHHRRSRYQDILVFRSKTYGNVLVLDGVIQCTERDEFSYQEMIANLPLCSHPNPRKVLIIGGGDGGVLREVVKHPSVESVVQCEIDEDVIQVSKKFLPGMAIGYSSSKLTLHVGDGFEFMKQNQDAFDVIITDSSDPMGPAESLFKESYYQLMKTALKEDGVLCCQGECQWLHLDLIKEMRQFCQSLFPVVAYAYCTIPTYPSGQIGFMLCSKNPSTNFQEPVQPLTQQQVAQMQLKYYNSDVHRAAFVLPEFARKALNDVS
The following applies: variety of mammalian cells exposed to racemic AdoDATO; cited from earlier work.

In data set [3] the test system is spermidine synthase. The following applies: neonatal rats, cited from earlier work.
Data set [4] deals with mouse alveolar macrophages. The following applies: cited from earlier work; for fusion of macrophages: 1α,25(OH)2D3-induced; for enhanced synthesis of proteins induced by 1α,25(OH)2D3: 9 of the 14 induced proteins.
Data set [5] deals with proteoglycan subunits bound to type II collagen. To be noted: Sepharose 4B-collagen column loaded with proteoglycan subunits; cited from earlier work.
The next data set concerns the target T2, alkaline phosphatase (Homo sapiens, UniProt P05186).
T2 construct: alkaline phosphatase produced from cartilage
T2 sequence (P05186 18-501): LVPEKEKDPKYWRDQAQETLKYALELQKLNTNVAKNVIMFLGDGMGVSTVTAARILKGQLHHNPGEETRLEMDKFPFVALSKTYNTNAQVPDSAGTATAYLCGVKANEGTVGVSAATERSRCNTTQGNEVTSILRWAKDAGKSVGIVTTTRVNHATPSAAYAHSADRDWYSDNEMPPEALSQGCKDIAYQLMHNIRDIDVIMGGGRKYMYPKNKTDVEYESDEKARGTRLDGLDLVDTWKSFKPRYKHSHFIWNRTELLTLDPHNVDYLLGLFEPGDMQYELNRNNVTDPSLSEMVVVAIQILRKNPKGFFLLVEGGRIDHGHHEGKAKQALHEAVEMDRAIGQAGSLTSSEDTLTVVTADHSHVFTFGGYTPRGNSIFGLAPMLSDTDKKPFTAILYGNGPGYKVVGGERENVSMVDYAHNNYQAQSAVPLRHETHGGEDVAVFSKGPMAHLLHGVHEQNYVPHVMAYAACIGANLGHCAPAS
The following applies: cited from earlier work.

The test system of a further data set is HMSC. As to the kind of experiment: Differentiation marker expression in HMSC treated with cytokines/growth factors. The class given is cell-based, human. On the procedure: 1.1. HMSC—Normal adult articular cartilage progenitor cells were obtained from human cartilage. The cartilage was dissected and cultured in fresh DMEM medium supplemented with 10% FCS, L-glutamine and antibiotics. Two weeks after the cultivation of dissected cartilage, the remaining pieces were removed and the attached cells were used.
(§1) A series of in vitro experiments using HMSC was conducted. The cells were exposed to a panel of treatments which cause either chondrogenic (e.g., IGF-1) or osteogenic and angiogenic (e.g., IL1 and FGF-2) responses. Two rounds of in vitro experiments were performed. Initially, a calibration experiment was carried out in order to determine the time/dose kinetics of the cellular response to the stimuli. Based on this study, a large-scale experiment was performed from which RNA was prepared and used in the course of the gene expression profiling experiments.
In order to validate the differentiation response of the HMSC to the various stimuli, cells exposed to different treatments (Table 1) were tested for the expression of markers specific for osteoblastic and chondroblastic lineages by immunohistochemistry and staining procedures. To optimize the response of HMSC to differentiation treatment, it was studied on cells grown at varying density (sparse and confluent).

In data set [6] the test system is spermidine synthase. The data set can be described thus: Gene expression profiling of treated HMSC by cDNA microarray hybridization. The data set is classed as cell-based, human. The following applies: HMSC treated with FGF-2. On the procedure:
as §1
cDNA probes were synthesized from 1 μg of polyA RNA derived from every sample using reverse transcriptase (Superscript, Gibco-BRL) and 18-mer oligo-dT primer. Cy3-dCTP (Amersham) or Cy5-dCTP (Amersham) were incorporated during the RT reaction, to label the cDNA. Hybridization, subsequent scanning, and visualization were performed as previously described (Schena, M. et al. (1996) Proc Natl Acad Sci USA 93, 10614-10619). The quality control of hybridizations was performed according to applicant's methods.
Probe 2 in all hybridizations was an identical probe comprised of a pool of 0 time point RNA extractions (Table 4, Common control). This served as a common normalizing probe and allowed us to compare results from different hybridizations in formal statistical analysis. […]

Where [7] appears, read: oral administration for 10 days or 4 months.
The mark [8] stands for this setting: rats, prolonged exposure for 10 days.

On to `C[C@H]1CC[C@H](N)CC1` [4MCHA, trans-4-methylcyclohexylamine], for which, in the data set on spermidine synthase [1] (setting [7]), the “spermidine in rat tissue” value was “specific and marked decrease”; the “spermine in rat tissue” value is “compensatory increase”. Also, the reduction in spermidine in the data set with spermidine synthase [1] (rats, prolonged exposure for 10 days, variety of tissues) is on record as 70-80%. In addition, in the data set on spermidine synthase [1] (setting [8]), the effect on growth result is “no obvious effect”, the spermine result is “compensatory increase” and the total polyamine content entry is given as “remained constant”.

For `NCCCCC[S+](CCN)CC1OC(n2cnc3c(N)ncnc32)C(O)C1O` (centres unmarked) [AdoDATO, S-adenosyl-1,8-diamino-3-thiooctane], the cell proliferation entry in the data set on cell proliferation was “significant decrease”. Further, at spermidine synthase [2], the cellular spermidine content result is “drastic decrease” and the putrescine content entry was “concomitant elevation”.

For the molecule `C1CCC(NC2CCCCC2)CC1` [DCHA], the “levels of all three polyamines on continued treatment” value in the data set on spermidine synthase [3] (continued DCHA treatment) is listed as “returned to normal within two weeks”. Besides, in the data set on spermidine synthase [3] (daily administration), the brain spermidine entry is reported as “dose-dependent depletion”; the putrescine and spermine entry is “rise”.

On to `CC(C=NNC(=N)N)=NNC(=N)N` [MGBG, methylglyoxal bis(guanylhydrazone), reference compound], for which, in [4], the fusion of macrophages entry was “concomitant inhibition” and the “enhanced synthesis of proteins induced by 1α,25(OH)2D3” value is “greatly diminished”.

Regarding `NCCCCN` [putrescine, 1,4-diaminobutane], in data set [5], the “effect on displacing proteoglycan subunits from collagen column” value (from here on “effect … from collagen column”) is on record as “without effect”.

Take `NCCCCNCCCN` [spermidine]: at alkaline phosphatase, the “activity of alkaline phosphatase produced from cartilage” value was “increased”. Also, in data set [5], the “effect … from collagen column” value is “strong capacity” and the “proteoglycan subunits removed from the column” value was “about 90%”. In data set [4], the fusion of macrophages entry is listed as “restored” and the “enhanced synthesis of proteins induced by 1α,25(OH)2D3” value was “restored”.

As for `NCCCNCCCCNCCCN` [spermine], the “activity of alkaline phosphatase produced from cartilage” value on alkaline phosphatase is on record as “increased”. In addition, in data set [5], the “effect … from collagen column” value is given as “without effect”.

In the case of FGF-2: fibroblast growth factor, in the data set with HMSC (confluent HMSC, 6 days), the FGFR3 expression result is listed as “increased”; the VEGF expression entry is on record as “increased”; the “chondrocyte maturation and cartilage matrix production (Alcian Blue staining)” value is reported as “decreased”; the expression of osteocalcin entry was “increased”. The “expression of spermidine synthase gene” value with spermidine synthase [6] is reported as “up-regulation”.

“IGF-1: growth factor that is beneficial for normal cartilage function and rehabilitation”: in the data set on HMSC (confluent HMSC, 6 days), the FGFR3 expression entry is “decreased”; the “chondrocyte maturation and cartilage matrix production (Alcian Blue staining)” value is given as “accelerates”; the “expression of collagen type II” value is listed as “increased”.

As for “IL-1β: the inflammatory cytokine, known to be overproduced in OA joints”, in the data set on HMSC (confluent HMSC, 6 days), the FGFR3 expression result is “increased”; the VEGF expression entry is listed as “increased”; the “chondrocyte maturation and cartilage matrix production (Alcian Blue staining)” value is reported as “decreased”; the expression of osteocalcin result is “increased”. The “cytotoxicity to HMSC” value in the data set with HMSC (high doses) is on record as “cytotoxic”.
